From patent US8841296B2, “Substituted 1, 4-dioxa-8-azaspiro[4,5]decanes useful as fungicides and a process for the preparation thereof” (Council of Scientific and Industrial Research, Anusandhan …, priority 2009, dated 2014)

Tests used:
[1] = test system: Fusarium oxysporum; assay: Growth inhibition plate assay, F. oxysporum; assay type: cell-based; conditions: ND = Not Detectable; for inhibition at 25 ppm: Fusarium oxysporum, read-out: Plate assay inhibition, P4 F. oxysporum
[2] = test system: plant pathogenic fungi (all the test pathogens); assay type: cell-based; conditions: for fungicidal activity against plant pathogenic fungi: result in words
[3] = test system: Colletotrichum capsici; assay: Growth inhibition plate assay, C. capsici; assay type: cell-based; conditions: ND = Not Detectable; for inhibition at 25 ppm: Colletotrichum truncatum, read-out: Plate assay inhibition, P2 C. capsici
[4] = test system: Pyrricularia oryzae; assay: microbe, parasite or virus in culture; assay type: cell-based; conditions: ND = Not Detectable; for inhibition at 25 ppm: Pyricularia oryzae, read-out: Plate assay inhibition, P5 P. oryzae, 25 ppm
[5] = test system: Rhizoctonia solani; assay: Growth inhibition plate assay, R. solani; assay type: cell-based; conditions: ND = Not Detectable, read-out: Plate assay inhibition, P1 R. solani
[6] = test system: Pythium aphanidermatum; assay: Growth inhibition plate assay, P. aphanidermatum; assay type: cell-based; conditions: ND = Not Detectable, read-out: Plate assay inhibition, P6 P. aphanidermatum
[7] = test system: grape downy mildew; assay: Field experiment against grape downy mildew; assay type: in vivo, grapevine
Procedure: A field experiment was conducted on pruned grapevine, in a randomized block design with ten treatments (Table No. 3) and three replications. Two sprays were given at an interval of 6 days starting at 28 days after pruning. The plot size was ten vines per treatment/replication. The spraying was done by Knapsack sprayer using 1000 L spray volume/hectare. […] Based on the observations, percent disease incidence was worked out. The data was subjected to statistical analysis.

[8] = test system: rose powdery mildew; assay: Field experiment against rose powdery mildew; assay type: in vivo; conditions: 4 days after spray; for Rose PM % Control: over untreated check
From the text: Two sprays were given at an interval of 4 days. The spraying was done by Foot operated sprayer using 1200 L spray volume/hectare. […] Based on the observations percent incidence was worked out. The data was subjected to statistical analysis.

[9] = test system: grape powdery mildew; assay: Field experiment against grape powdery mildew; assay type: in vivo, grapevine; conditions: for PDI on Bunches 11 DAIIS / % Disease Control (11 DAIIS): 11 days after 2nd spray; for % Disease Control (11 DAIIS) / % Disease Control (15 DAIIS): over untreated check; for PDI on Bunches 15 DAIIS / % Disease Control (15 DAIIS): 15 days after 2nd spray
Procedure: A field experiment was conducted on pruned grapevine, in a randomized block design with ten treatments (Table No 1) and three replications. Two sprays were given at an interval of 10 days. The plot size was eight vines per treatment/replication. The spraying was done by Knapsack sprayer using 850 L spray volume/hectare. […] Based on the observations percent incidence was worked out.

[10] = test system: Drechslera oryzae; assay: Growth inhibition plate assay, D. oryzae; assay type: cell-based; conditions: ND = Not Detectable; for inhibition at 25 ppm: Bipolaris oryzae, read-out: Plate assay inhibition, P3 D. oryzae, 25 ppm
[11] = test system: Magnaporthe grisea; assay type: cell-based
[12] = 20% EC @ 400 g a.i./ha, 7 days after 2nd spray
[13] = 20% EC @ 400 g a.i./ha, 7 days after 2nd spray, over untreated check
[14] = 20% EC @ 400 g a.i./ha, 10 days after 2nd spray
[15] = 20% EC @ 400 g a.i./ha, 10 days after 2nd spray, over untreated check
[16] = 20% EC @ 800 g a.i./ha, 7 days after 2nd spray
[17] = 20% EC @ 800 g a.i./ha, 7 days after 2nd spray, over untreated check
[18] = 20% EC @ 800 g a.i./ha, 10 days after 2nd spray
[19] = 20% EC @ 800 g a.i./ha, 10 days after 2nd spray, over untreated check

Clc1ncc(COCC2COC3(CCN(CCc4ccccc4)CC3)O2)s1 (stereo not drawn) [Compound 4, 2-(2-chloro-5-thiazolyl)methoxymethyl-8-phenethyl-1,4-dioxa-8-azaspiro[4,5]decane]
inhibition at 25 ppm [1]: 30 to 40%
inhibition against all the test pathogens [2]: 20-30%
inhibition at 25 ppm [3]: 20 to 30%
inhibition at 25 ppm [4]: 30 to 40%
inhibition at 25 ppm [5]: 20 to 30%

Fc1ccc(Cl)cc1NCC1COC2(CCN(Cc3cnc(Cl)s3)CC2)O1 (stereo not drawn) [Compound 8, N-(5-chloro-2-fluorophenyl)-N-{8-(2-chloro-5-thiazolyl)methyl-1,4-dioxa-8-aza-spiro[4,5]dec-2-yl}methanamine]
inhibition at 25 ppm [1]: 20 to 30%
inhibition at 25 ppm [6]: 50 to 60%

COc1ccc(C(=CC(=O)N2CCOCC2)c2ccc(Cl)cc2)cc1OC [Dimethomorph, reference compound]
Grape Downy mildew incidence 7 DAIIS ([7]; 50 WP @ 500 g a.i./ha, 7 days after 2nd spray): 2.39%
Grape Downy mildew incidence 10 DAIIS ([7]; 50 WP @ 500 g a.i./ha, 10 days after 2nd spray): 2.42%
% Control (7 DAIIS) ([7]; 500 g/ha, 168 h): 85.81%
% Control (10 DAIIS) ([7]; 500 g/ha, 240 h): 89.37%

Clc1cc(Br)ccc1OCC1COC2(CCN(CCc3ccccc3)CC2)O1 (stereo not drawn) [Compound 2, 2-(4-bromo-2-chlorophenoxy)methyl-8-phenethyl-1,4-dioxa-8-azaspiro[4,5]decane]
inhibition at 25 ppm [1]: 90 to 100%
Rose PM % incidence 4 DAS ([8]; 20% EC @ 720 g a.i./ha): 36.83%
Rose PM % Control ([8]; 20% EC @ 720 g a.i./ha): 28.52%
inhibition at 25 ppm [6]: 90 to 100%
PDI on Bunches 11 DAIIS ([9]; 20% EC @ 340 g a.i./ha): 12.96%
% Disease Control (11 DAIIS) ([9]; 20% EC @ 340 g a.i./ha): 56.67%
PDI on Bunches 15 DAIIS ([9]; 20% EC @ 340 g a.i./ha): 10.23%
% Disease Control (15 DAIIS) ([9]; 20% EC @ 340 g a.i./ha): 60.84%
PDI on Bunches 11 DAIIS ([9]; 20% EC @ 510 g a.i./ha): 13.6%
% Disease Control (11 DAIIS) ([9]; 20% EC @ 510 g a.i./ha): 54.53%
PDI on Bunches 15 DAIIS ([9]; 20% EC @ 510 g a.i./ha): 9.6%
% Disease Control (15 DAIIS) ([9]; 20% EC @ 510 g a.i./ha): 63.26%
PDI on Bunches 11 DAIIS ([9]; 20% EC @ 680 g a.i./ha): 12.48%
% Disease Control (11 DAIIS) ([9]; 20% EC @ 680 g a.i./ha): 58.27%
PDI on Bunches 15 DAIIS ([9]; 20% EC @ 680 g a.i./ha): 8.9%
% Disease Control (15 DAIIS) ([9]; 20% EC @ 680 g a.i./ha): 65.93%
inhibition at 25 ppm [10]: 90 to 100%
inhibition against all the test pathogens [2]: 90-100%
fungicidal activity against plant pathogenic fungi [2]: active against all pathogens
inhibition at 25 ppm [3]: 90 to 100%
inhibition at 25 ppm [4]: 90 to 100%
Grape Downy mildew incidence 7 DAIIS [7, 12]: comparable with standard check fungicides
Grape Downy mildew incidence 7 DAIIS ([7]; 20% EC @ 400 g a.i./ha, 7 days after 2nd spray, listed as Cpd 2): 4.46%
% Control (7 DAIIS) [7, 13]: 73.53%
Grape Downy mildew incidence 10 DAIIS [7, 14]: 7.58%
% Control (10 DAIIS) [7, 15]: 66.72%
Grape Downy mildew incidence 7 DAIIS [7, 16]: comparable with standard check fungicides
Grape Downy mildew incidence 7 DAIIS ([7]; 20% EC @ 800 g a.i./ha, 7 days after 2nd spray, listed as Cpd 2): 2.77%
% Control (7 DAIIS) [7, 17]: 83.56%
Grape Downy mildew incidence 10 DAIIS [7, 18]: at par with standard check fungicides
Grape Downy mildew incidence 10 DAIIS ([7]; 20% EC @ 800 g a.i./ha, 10 days after 2nd spray, listed as Cpd 2): 5.27%
% Control (10 DAIIS) [7, 19]: 76.86%
inhibition at 25 ppm [5]: 90 to 100%

c1ccc(CCN2CCC3(CC2)OCC(CN2CCOCC2)O3)cc1 (stereo not drawn) [Compound 3, 2-(morpholin-4-yl)methyl-8-phenethyl-1,4-dioxa-8-azaspiro[4,5]decane]
inhibition at 25 ppm [1]: 70 to 80%
inhibition at 25 ppm [10]: 60 to 70%
inhibition at 25 ppm [4]: 40 to 50%
inhibition at 25 ppm [5]: 70 to 80%

CO/N=C(/C(=O)OC)c1ccccc1COc1ccccc1C [Kresoxim methyl, reference compound]
PDI on Bunches 11 DAIIS ([9]; 50 SC 425 g a.i./ha): 5.5%
% Disease Control (11 DAIIS) ([9]; 50 SC 425 g a.i./ha): 81.61%
PDI on Bunches 15 DAIIS ([9]; 50 SC 425 g a.i./ha): 3.55%
% Disease Control (15 DAIIS) ([9]; 50 SC 425 g a.i./ha): 86.41%

c1ccc(CCN2CCC3(CC2)OCC(COCc2ccccc2)O3)cc1 (stereo not drawn) [Compound 5, 2-benzyloxymethyl-8-phenethyl-1,4-dioxa-8-azaspiro[4,5]decane]
inhibition at 25 ppm [1]: 40 to 50%
inhibition at 25 ppm [10]: 60 to 70%
inhibition against M. grisea [11]: 60-70%
inhibition at 25 ppm [5]: 40 to 50%

CCCCC(O)(Cn1cncn1)c1ccc(Cl)cc1Cl (stereo not drawn) [Hexaconazole, reference compound]
PDI on Bunches 11 DAIIS ([9]; 5 E @ 42.50 g a.i./ha): 8.59%
% Disease Control (11 DAIIS) ([9]; 5 E @ 42.50 g a.i./ha): 71.28%
PDI on Bunches 15 DAIIS ([9]; 5 E @ 42.50 g a.i./ha): 4.81%
% Disease Control (15 DAIIS) ([9]; 5 E @ 42.50 g a.i./ha): 81.59%

c1ccc(CCN2CCC3(CC2)OCC(CSc2ccccc2)O3)cc1 (stereo not drawn) [Compound 6, 8-phenethyl-2-phenylsulphanylmethyl-1,4-dioxa-8-azaspiro[4,5]decane]
Plate assay inhibition, P4 F. oxysporum ([1]; 25 ppm, listed as C6): 70-80%
inhibition at 25 ppm [1]: 60 to 90%
Rose PM % incidence 4 DAS ([8]; 20% EC @ 240 g a.i./ha): 38.42%
Rose PM % Control ([8]; 20% EC @ 240 g a.i./ha): 25.44%
Rose PM % incidence 4 DAS ([8]; 20% EC @ 480 g a.i./ha): 29.45%
Rose PM % Control ([8]; 20% EC @ 480 g a.i./ha): 42.84%
Rose PM % incidence 4 DAS ([8]; 20% EC @ 720 g a.i./ha): 23.21%
Rose PM % Control ([8]; 20% EC @ 720 g a.i./ha): 54.95%
inhibition at 25 ppm [6]: 50 to 60%
PDI on Bunches 11 DAIIS ([9]; 20% EC @ 340 g a.i./ha): 11.89%
% Disease Control (11 DAIIS) ([9]; 20% EC @ 340 g a.i./ha): 60.24%
PDI on Bunches 15 DAIIS ([9]; 20% EC @ 340 g a.i./ha): 10.6%
% Disease Control (15 DAIIS) ([9]; 20% EC @ 340 g a.i./ha): 59.43%
% Disease Control (11 DAIIS) ([9]; 20% EC @ 510 g a.i./ha): 66.26%
PDI on Bunches 15 DAIIS ([9]; 20% EC @ 510 g a.i./ha): 9.1%
% Disease Control (15 DAIIS) ([9]; 20% EC @ 510 g a.i./ha): 65.17%
% Disease Control (11 DAIIS) ([9]; 20% EC @ 680 g a.i./ha): 69.6%
% Disease Control (15 DAIIS) ([9]; 20% EC @ 680 g a.i./ha): 70.72%
Plate assay inhibition, P3 D. oryzae ([10]; 25 ppm, listed as C6): 70-80%
inhibition at 25 ppm [10]: 60 to 90%
fungicidal activity against plant pathogenic fungi [2]: active against all pathogens
Plate assay inhibition, P2 C. capsici ([3]; 25 ppm, listed as C6): 60-70%
inhibition at 25 ppm [3]: 60 to 90%
Plate assay inhibition, P5 P. oryzae ([4]; 25 ppm, listed as C6): 80-90%
inhibition at 25 ppm [4]: 60 to 90%
Grape Downy mildew incidence 7 DAIIS [7, 12]: 16.14%
% Control (7 DAIIS) [7, 13]: 4.21%
Grape Downy mildew incidence 10 DAIIS [7, 14]: 24.88%
% Control (10 DAIIS) [7, 15]: 0%
Grape Downy mildew incidence 7 DAIIS [7, 16]: 16.91%
% Control (7 DAIIS) [7, 17]: 0%
Grape Downy mildew incidence 10 DAIIS [7, 18]: 17.7%
% Control (10 DAIIS) [7, 19]: 22.3%
inhibition at 25 ppm [5]: 90 to 100%

CO/C=C(/C(=O)OC)c1ccccc1Oc1cc(Oc2ccccc2C#N)ncn1 [Azoxystrobin, reference compound]
PDI on Bunches 11 DAIIS ([9]; 25 SC @ 212 g a.i./ha): 8.68%
% Disease Control (11 DAIIS) ([9]; 25 SC @ 212 g a.i./ha): 70.97%
PDI on Bunches 15 DAIIS ([9]; 25 SC @ 212 g a.i./ha): 5.92%
% Disease Control (15 DAIIS) ([9]; 25 SC @ 212 g a.i./ha): 77.34%
Grape Downy mildew incidence 7 DAIIS ([7]; 23 SC @ 230 g a.i./ha, 7 days after 2nd spray): 3.32%
% Control (7 DAIIS) ([7]; 23 SC @ 230 g a.i./ha, 7 days after 2nd spray, over untreated check): 80.29%
Grape Downy mildew incidence 10 DAIIS ([7]; 23 SC @ 230 g a.i./ha, 10 days after 2nd spray): 2.7%
% Control (10 DAIIS) ([7]; 23 SC @ 230 g a.i./ha, 10 days after 2nd spray, over untreated check): 88.14%
